The values that follow come from PubChem BioAssay AID1963962 (Molecular Pharmacology Branch, DTP, NCI, 2024).

Molecules are shown by their SMILES. Where “and” joins values, the source holds several entries; their conditions need not be identical. Equal values may be shown once.

In general, viability, T/C refers to the ratio of treated to control. As usually defined, the IC50 is the concentration that gives 50% inhibition.

In this experiment the test system is 967376-340-R-J2-PDC multicell spheroid viability. Description: Anticancer human tumor 967376-340-R-J2-PDC patient-derived colon adenocarcinoma cell line growth inhibition [PI3K]. The conditions noted are these: for viability, T/C: stronger effect = lower value. The text has this:
Combinatorial screen of targeted agents with the PI3K inhibitors inavolisib, alpelisib, duvelisib, and copanlisib in multi-cell type tumor spheroids
A high-throughput screen of multi-cell type tumor spheroids was designed to identify active combinations of targeted small molecules and PI3K pathway inhibitors. Complex spheroids include a stromal component modeled by human endothelial cells (HUVEC) and fibroblasts modeled by human mesenchymal stem cells (MSCs). The concentration ranges selected for each drug and investigational agent were based upon clinically achievable concentrations if the clinical Cmax of the agent was known.
Compounds. The drugs and investigational agents: inavolisib (NSC800729), alpelisib (NSC765974), duvelisib (NSC772469), copanlisib (NSC816437), ipatasertib (NSC767898), afuresertib (NSC778305), talazoparib (NSC767125), sapanisertib (NSC764658), selumetinib (NSC741078), tovorafenib (DAY101, NSC766906), vemurafenib (NSC761431), ravoxertinib (NSC781343), sotorasib (NSC818433), MRTX1133 (NSC 836407), abemaciclib (NSC 768073), palbociclib (NSC758247), venetoclax (NSC 766270), SY5609 (NSC837396), enzalutamide (NSC755605), and darolutamide (NSC825331), were obtained from the National Cancer Institute (NCI) Developmental Therapeutics Program Chemical Repository. The FDA-approved anticancer drug set is available from the NCI Developmental Therapeutics Program. […] The stock solutions were prepared in dimethyl sulfoxide (DMSO, Sigma-Aldrich, St. Louis, MO, cat. D2650) at 800-fold the tested concentration and stored at -70 degrees C prior to their use. All drugs and investigational agents were tested over a range starting from a high concentration at or near the clinical Cmax and decreasing in half-log increments. If the clinical Cmax for an agent had not been determined, the highest concentration tested was 10 microM.
Cell Culture. All cells were maintained in an incubator at 37 degrees C and 5% CO2 with 95% humidity. The PDC lines were cultured according to standard operating procedures established by the NCI PDMR (https://pdmr.cancer.gov/sops/default.htm). All PDCs were thawed and cultured in Matrigel-coated flasks prepared with a working solution of 1X Ham's F-12 nutrient mix, without supplementation (Invitrogen, Waltham, MA, cat. 11765054), 100 U/mL penicillin-streptomycin (Invitrogen, cat. 15140122), and 2.5% Matrigel (Corning Inc., Corning, NY, cat. 354248) for the first three passages. The 354836-022-R-J1-PDC, 475296-252-R-J1-PDC, and 997726-040-R-J2-PDC lines were cultured in 6A media, which includes advanced DMEM/F-12 (Thermo Fisher Scientific, cat. 12634028), 10 mM HEPES (Thermo Fisher Scientific, cat. 15630080), 1X GlutaMAX supplement (Thermo Fisher Scientific, cat. 35050061), 0.1 mg/mL primocin (InvivoGen, San Diego, CA, cat. ant-pm-2), 10% defined fetal bovine serum, heat inactivated (HyClone Laboratories Inc., Logan, UT, cat. SH30070.03HI), 50% L-WRN conditioned media (ATCC, cat. CRL-3276), 1.25 mM N-Acetyl-L-cysteine (Sigma-Aldrich, cat. A9165), 10 mM nicotinamide (Sigma-Aldrich, cat. N0636), 1X B-27 supplement (Thermo Fisher Scientific, cat. 17504044), 1X N-2 supplement (Thermo Fisher Scientific, cat. 17502048), and 10 microM Y-27632 dihydrochloride (Tocris Bioscience, Bristol, United Kingdom, cat. 1254). The 624824-186-R-J2-PDC line was cultured in 6C/Colon 1B media, which includes all 6A media components plus 50 ng/mL human EGF recombinant protein (Thermo Fisher Scientific, cat. PHG0311). […]

The mark [1] stands for this setting: compound alone, run of 06/13/2023.
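Note: spheroids exposed to agents for 7 days before read-out.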
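Throughout, for viability, T/C: luminescence used as surrogate of cell viability.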

As for `C#Cc1c(F)ccc2cc(O)cc(-c3ncc4c(N5CC6CCC(C5)N6)nc(OCC56CCCN5CC(F)C6)nc4c3F)c12` (stereo not given), the viability, T/C (compound 0.0316 µM) is 106% [middle of 4 runs]; the viability, T/C (compound 0.1 µM) was 109% and 101% (2×) and 92.1%; the viability, T/C (compound 3.16 µM) is 91.7% [middle of 4 runs]. Besides, the IC50 (curve of compound) was above 10 µM.

In the case of `C=CC(=O)N1CCN(c2nc(=O)n(-c3c(C)ccnc3C(C)C)c3nc(-c4c(O)cccc4F)c(F)cc23)C(C)C1` (stereo not given), the viability, T/C (compound 0.0316 µM) was 106% and 98.1% and 85.1%; the viability, T/C (compound 0.1 µM) was 87.2% and 75.8% and 115%; the viability, T/C (compound 0.316 µM) is 106% and 107% and 86.6%; the viability, T/C (compound 1 µM) was 97.1% and 124% and 96.3%; the viability, T/C (compound 3.16 µM) was 119% and 123% and 101%; the viability, T/C (compound 10 µM) is 112% and 107% and 119%. Besides, the half-inhibitory concentration (IC50) (curve of compound) is above 10 µM.

Consider `CC(=O)c1c(C)c2cnc(Nc3ccc(N4CCNCC4)cn3)nc2n(C2CCCC2)c1=O`, for which the viability, T/C was 101% [middle of 4 runs] (compound 0.000316 µM); 95.8% [middle of 4 runs] (compound 0.001 µM); 103% [middle of 4 runs] (compound 0.00316 µM); 98.9% [middle of 4 runs] (compound 0.01 µM); 118% (2×) and 120% and 81.9% (compound 0.0316 µM); 79% [middle of 4 runs] (compound 0.1 µM). The IC50 (curve of compound) was above 0.1 µM.

Regarding `CC(C)NCC(C(=O)N1CCN(c2ncnc3c2C(C)CC3O)CC1)c1ccc(Cl)cc1` (stereo not given), the viability, T/C is, setting by setting: (compound 0.0316 µM) 107% [middle of 4 runs]; (compound 0.1 µM) 91.1% [middle of 4 runs]; (compound 0.316 µM) 90.2% [middle of 4 runs]; (compound 1 µM) 88% [middle of 4 runs]; (compound 3.16 µM) 103% [middle of 4 runs]; (compound 10 µM) 83.2% [middle of 4 runs]. Besides, the IC50 (curve of compound) is above 10 µM.

On to `CC(C)n1nc(-c2ccc3oc(N)nc3c2)c2c(N)ncnc21`, for which the viability, T/C was 103% [middle of 4 runs] (compound 0.000316 µM), 101% [middle of 4 runs] (compound 0.00316 µM), 80.7% [middle of 4 runs] (compound 0.0316 µM) and 59.2% [middle of 4 runs] (compound 0.1 µM). Moreover, the half-maximal inhibitory concentration (IC50) (curve of compound) was > 0.1 µM and 0.0967 µM.

Consider `CC(Cn1ccc(-c2ccc(C#N)c(Cl)c2)n1)NC(=O)c1cc(C(C)O)[nH]n1` (stereo not given), for which the viability, T/C is, setting by setting: (compound 0.0316 µM) 105% [middle of 4 runs]; (compound 0.1 µM) 99.6% [middle of 4 runs]; (compound 0.316 µM) 101% [middle of 4 runs]; (compound 1 µM) 101% [middle of 4 runs]; (compound 3.16 µM) 103% [middle of 4 runs]. For the same compound, the IC50 (curve of compound) was above 10 µM.

Turning to `CC(Nc1ccc2c(c1)OCCn1cc(N3C(=O)OCC3C(F)F)nc1-2)C(N)=O` (stereo not given), the viability, T/C was 86.9% [middle of 7 runs] (compound 0.0316 µM), 81.4% [middle of 7 runs] (compound 0.1 µM), 67% [middle of 7 runs] (compound 0.316 µM) and 52.7% [middle of 7 runs] (compound 1 µM).

With `CC(Nc1ncnc2nc[nH]c12)c1cc2cccc(Cl)c2c(=O)n1-c1ccccc1` (stereo not given), the viability, T/C is 94.5% [middle of 8 runs] (compound 0.0316 µM), 89% [middle of 8 runs] (compound 0.316 µM) and 94.5% [middle of 8 runs] (compound 1 µM). Besides, the half-inhibitory concentration (IC50) under setting [1] was above 10 µM.

Consider `CC1(C)CCC(CN2CCN(c3ccc(C(=O)NS(=O)(=O)c4ccc(NCC5CCOCC5)c([N+](=O)[O-])c4)c(Oc4cnc5[nH]ccc5c4)c3)CC2)=C(c2ccc(Cl)cc2)C1`, for which the viability, T/C runs as follows: (compound 0.0316 µM) 99.2% [middle of 4 runs]; (compound 0.1 µM) 94.1% [middle of 4 runs]; (compound 0.316 µM) 88.6% [middle of 4 runs]; (compound 1 µM) 88.1% [middle of 4 runs]; (compound 3.16 µM) 89.6% [middle of 4 runs]. Moreover, the IC50 (curve of compound) was above 10 µM.

For the compound `CC1(C)CCC(Nc2ncc(C(F)(F)F)c(-c3c[nH]c4c(P(C)(C)=O)c(C#N)ccc34)n2)CN1` (stereo not given), the viability, T/C is 88.9% [middle of 4 runs] (compound 0.0316 µM); 73.3% [middle of 4 runs] (compound 0.316 µM); 71.2% [middle of 4 runs] (compound 1 µM); 69.4% [middle of 4 runs] (compound 3.16 µM); 48.1% [middle of 4 runs] (compound 10 µM). For the setting “curve of compound”, the IC50 is 9.93 µM and > 10 µM and 2.51 µM.

Regarding `CCCS(=O)(=O)Nc1ccc(F)c(C(=O)c2c[nH]c3ncc(-c4ccc(Cl)cc4)cc23)c1F`, the viability, T/C is, setting by setting: (compound 0.0316 µM) 102% [middle of 4 runs]; (compound 0.1 µM) 87.8% [middle of 4 runs]; (compound 0.316 µM) 94.6% [middle of 4 runs]; (compound 3.16 µM) 104% [middle of 4 runs]; (compound 10 µM) 56.4% [middle of 4 runs]. The 50% inhibitory concentration (IC50) (curve of compound) was > 10 µM and 9.14 µM.

`CCN1CCN(Cc2ccc(Nc3ncc(F)c(-c4cc(F)c5nc(C)n(C(C)C)c5c4)n3)nc2)CC1`: the viability, T/C (compound 0.00316 µM) is 110% [middle of 4 runs]; the viability, T/C (compound 0.01 µM) was 93.5% [middle of 4 runs]; the viability, T/C (compound 0.0316 µM) was 94.2% [middle of 4 runs]; the viability, T/C (compound 0.1 µM) was 82% [middle of 4 runs]; the viability, T/C (compound 0.316 µM) is 87% [middle of 4 runs]; the viability, T/C (compound 1 µM) was 74% [middle of 4 runs]. Also, the half-maximal inhibitory concentration (IC50) (curve of compound) is above 1 µM.

Turning to `COc1c(OCCCN2CCOCC2)ccc2c3n(c(=NC(=O)c4cnc(N)nc4)nc12)CCN3`, the viability, T/C (compound 0.01 µM) was 85.7% [middle of 8 runs]; the viability, T/C (compound 0.0316 µM) is 79.9% [middle of 8 runs]; the viability, T/C (compound 0.1 µM) was 60.7% [middle of 8 runs]; the viability, T/C (compound 0.316 µM) was 47.8% [middle of 8 runs]; the viability, T/C (compound 1 µM) is 38.5% [middle of 8 runs]. Also, the half-inhibitory concentration (IC50) under setting [1] is 212 nM [middle of 8 runs].

`Cc1nc(NC(=O)N2CCCC2C(N)=O)sc1-c1ccnc(C(C)(C)C(F)(F)F)c1` (stereo not given): the viability, T/C reads like this: (compound 0.1 µM) 85.3% [middle of 8 runs]; (compound 0.316 µM) 80.7% [middle of 8 runs]; (compound 1 µM) 73.6% [middle of 8 runs]; (compound 3.16 µM) 64.3% [middle of 8 runs]; (compound 10 µM) 45.7% [middle of 8 runs].

Regarding `Cn1cnc2c(F)c(Nc3ccc(Br)cc3Cl)c(C(=O)NOCCO)cc21`, the viability, T/C is 89.9% [middle of 4 runs] (compound 0.00949 µM), 97.7% [middle of 4 runs] (compound 0.03 µM) and 87.6% [middle of 4 runs] (compound 0.0949 µM).

Consider `Cn1ncc(Cl)c1-c1cc(C(=O)NC(CN)Cc2cccc(F)c2)sc1Cl` (stereo not given), for which the viability, T/C was 107% [middle of 4 runs] (compound 0.0316 µM), 91.2% [middle of 4 runs] (compound 0.316 µM), 81.3% [middle of 4 runs] (compound 3.16 µM) and 76.4% [middle of 4 runs] (compound 10 µM). Besides, the IC50 (curve of compound) is above 10 µM.

Consider `Cn1nccc1Nc1nccc(-c2ccn(C(CO)c3ccc(Cl)c(F)c3)c(=O)c2)n1` (stereo not given), for which the viability, T/C is 100% [middle of 4 runs] (compound 0.0316 µM); 94.5% [middle of 4 runs] (compound 0.1 µM); 101% (2×) and 95.3% and 76.4% (compound 0.316 µM); 99.5% [middle of 4 runs] (compound 10 µM). Moreover, the IC50 (curve of compound) was above 10 µM.

Take `Cn1ncnc1[C@H]1c2n[nH]c(=O)c3cc(F)cc(c23)N[C@@H]1c1ccc(F)cc1`: the viability, T/C was 78.6% and 114% and 95.8% (compound 0.000316 µM); 82.5% and 93.1% and 84.2% (compound 0.001 µM); 90.3% and 94.6% and 70.5% (compound 0.00316 µM); 103% and 104% and 90.4% (compound 0.01 µM); 93.2% and 88.8% and 97.9% (compound 0.0316 µM); 92.5% and 99.6% and 94.7% (compound 0.1 µM). The IC50 (curve of compound) is above 0.1 µM.
